Reference: patent US11690810B2, “Combination treatment of bacterial infection” (The Chinese University of Hong Kong, priority 2018, dated 2023)
“And” between values parts separate entries of the source, which are not always exact repeats. Equal entries are not always repeated.

Key:
Test in all cases: MIC and checkerboard (FIC) assay
[1] = test system: S. aureus SA-ANT4′ (ANT4), resistant to fusidic acid; conditions: for FIC / MIC combine: ANT4
[2] = test system: HA MRSA W234; conditions: W234
[3] = test system: HA MRSA W238
[4] = test system: clinical fusidic acid resistant MRSA strain 96591; format: cell-based, Staphylococcus aureus; conditions: for FIC / MIC combine: 96591
[5] = test system: clinical fusidic acid resistant MRSA strain 73621; format: cell-based, Staphylococcus aureus; conditions: for FIC / MIC combine: 73621
[6] = test system: CA MRSA W45; conditions: W45
[7] = test system: CA MRSA W114; conditions: W114
[8] = test system: HA MRSA W240; conditions: W240
[9] = test system: CA MRSA W46; conditions: W46
[10] = test system: HA MRSA W233
[11] = test system: HA MRSA W239; conditions: W239
[12] = test system: HA MRSA W231
[13] = test system: MRSA SA-ST239; conditions: ST239
[14] = test system: clinical fusidic acid resistant MRSA strain 82356; format: cell-based, Staphylococcus aureus; conditions: for FIC / MIC combine: 82356
[15] = test system: CA MRSA W103; conditions: W103
[16] = test system: CA MRSA W48; conditions: W48
[17] = test system: CA MRSA W101; conditions: W101
[18] = test system: CA MRSA W44; conditions: W44
[19] = test system: S. aureus ATCC25923 (methicillin sensitive); conditions: ATCC 25293

Which results are given for C=C(C)[C@H](CC=C(C)C)Cc1c(O)cc(OC)c(C(=O)/C=C/c2ccc(O)cc2O)c1O [Kuraridin]?
MIC alone ([1]; ANT4 (fusidic acid resistant)): 8 µg/mL; FIC ([1]; ECG+Kur+Fus): 0.25; MIC combine ([1]; ECG+Kur+Fus): 2 µg/mL; FIC ([1]; ECG+Kur, no Fus): 0.25; MIC combine ([1]; ECG+Kur, no Fus): 2 µg/mL; MIC alone [2]: 8 µg/mL; FIC ([2]; ECG with Kur): 0.5; MIC combine ([2]; ECG with Kur): 4 µg/mL; MIC alone ([3]; W238): 8 µg/mL; MIC alone ([3]; W238 (gentamicin resistant)): 8 µg/mL; FIC ([3]; W238, ECG with Kur): 0.5; MIC combine ([3]; W238, ECG with Kur): 4 µg/mL; FIC ([3]; W238, ECG+Kur+Gen): 0.25; MIC combine ([3]; W238, ECG+Kur+Gen): 2 µg/mL; FIC ([3]; W238, ECG+Kur+Van): 0.25; MIC combine ([3]; W238, ECG+Kur+Van): 2 µg/mL; FIC ([3]; W238, ECG+Kur, no Gen): 0.5; MIC combine ([3]; W238, ECG+Kur, no Gen): 4 µg/mL; MIC alone ([3]; W238, Table 5): 8 µg/mL; MIC alone ([4]; 96591 (fusidic acid resistant), listed as Kur): 4 µg/mL and 8 µg/mL; FIC ([4]; ECG+Kur+Fus): 0.5; MIC combine ([4]; ECG+Kur+Fus): 2 µg/mL; FIC ([4]; ECG+Kur, no Fus): 0.5; MIC combine ([4]; ECG+Kur, no Fus): 4 µg/mL; MIC alone ([5]; 73621 (fusidic acid resistant)): 8 µg/mL; FIC ([5]; ECG+Kur+Fus): 0.5; MIC combine ([5]; ECG+Kur+Fus): 4 µg/mL; FIC ([5]; ECG+Kur, no Fus): 0.5; MIC combine ([5]; ECG+Kur, no Fus): 4 µg/mL; MIC alone [6]: 8 µg/mL; FIC ([6]; ECG with Kur): 0.5; MIC combine ([6]; ECG with Kur): 4 µg/mL; FIC ([6]; ECG+Kur+Van): 0.25; MIC combine ([6]; ECG+Kur+Van): 2 µg/mL; MIC alone ([6]; Table 5): 8 µg/mL; MIC alone [7]: 8 µg/mL; FIC ([7]; ECG with Kur): 0.5; MIC combine ([7]; ECG with Kur): 4 µg/mL; MIC alone [8]: 8 µg/mL; FIC ([8]; ECG with Kur): 0.5; MIC combine ([8]; ECG with Kur): 4 µg/mL; MIC alone [9]: 8 µg/mL; FIC ([9]; ECG with Kur): 0.5; MIC combine ([9]; ECG with Kur): 4 µg/mL; FIC ([9]; ECG+Kur+Van): 0.5; MIC combine ([9]; ECG+Kur+Van): 4 µg/mL; MIC alone ([9]; Table 5): 8 µg/mL; MIC alone ([10]; W233): 4 µg/mL; MIC alone ([10]; W233 (gentamicin resistant)): 8 µg/mL; FIC ([10]; W233, ECG with Kur): 0.5; MIC combine ([10]; W233, ECG with Kur): 2 µg/mL; FIC ([10]; W233, ECG+Kur+Gen): 0.5; MIC combine ([10]; W233, ECG+Kur+Gen): 4 µg/mL; FIC ([10]; W233, ECG+Kur+Van): 0.25; MIC combine ([10]; W233, ECG+Kur+Van): 2 µg/mL; FIC ([10]; W233, ECG+Kur, no Gen): 1; MIC combine ([10]; W233, ECG+Kur, no Gen): 8 µg/mL; MIC alone ([10]; W233, Table 5): 8 µg/mL; MIC alone [11]: 8 µg/mL; FIC ([11]; ECG with Kur): 0.5; MIC combine ([11]; ECG with Kur): 4 µg/mL; FIC ([11]; ECG+Kur+Van): 0.25; MIC combine ([11]; ECG+Kur+Van): 2 µg/mL; MIC alone ([11]; Table 5): 8 µg/mL; MIC alone ([12]; W231): 4 µg/mL; MIC alone ([12]; W231 (gentamicin resistant)): 8 µg/mL; FIC ([12]; W231, ECG with Kur): 0.25; MIC combine ([12]; W231, ECG with Kur): 1 µg/mL; FIC ([12]; W231, ECG+Kur+Gen): 0.25; MIC combine ([12]; W231, ECG+Kur+Gen): 2 µg/mL; FIC ([12]; W231, ECG+Kur+Van): 0.125; MIC combine ([12]; W231, ECG+Kur+Van): 1 µg/mL; FIC ([12]; W231, ECG+Kur, no Gen): 0.25; MIC combine ([12]; W231, ECG+Kur, no Gen): 2 µg/mL; MIC alone ([12]; W231, Table 5): 8 µg/mL; MIC alone [13]: 8 µg/mL; FIC ([13]; ECG with Kur): 0.5; MIC combine ([13]; ECG with Kur): 4 µg/mL; FIC ([13]; ECG+Kur+Van): 0.125; MIC combine ([13]; ECG+Kur+Van): 1 µg/mL; MIC alone ([13]; Table 5): 8 µg/mL; MIC alone ([14]; 82356 (fusidic acid resistant)): 8 µg/mL; FIC ([14]; ECG+Kur+Fus): 0.25; MIC combine ([14]; ECG+Kur+Fus): 4 µg/mL; FIC ([14]; ECG+Kur, no Fus): 0.5; MIC combine ([14]; ECG+Kur, no Fus): 4 µg/mL; MIC alone [15]: 8 µg/mL; FIC ([15]; ECG with Kur): 0.5; MIC combine ([15]; ECG with Kur): 4 µg/mL; MIC alone [16]: 8 µg/mL; FIC ([16]; ECG with Kur): 0.5; MIC combine ([16]; ECG with Kur): 4 µg/mL; FIC ([16]; ECG+Kur+Van): 0.25; MIC combine ([16]; ECG+Kur+Van): 2 µg/mL; MIC alone ([16]; Table 5): 8 µg/mL; MIC alone [17]: 8 µg/mL; FIC ([17]; ECG with Kur): 0.5; MIC combine ([17]; ECG with Kur): 4 µg/mL; MIC alone [18]: 8 µg/mL; FIC ([18]; ECG with Kur): 0.25; MIC combine ([18]; ECG with Kur): 2 µg/mL; FIC ([18]; ECG+Kur+Van): 0.25; MIC combine ([18]; ECG+Kur+Van): 2 µg/mL; MIC alone ([18]; Table 5): 8 µg/mL; MIC alone [19]: 8 µg/mL; FIC ([19]; ECG with Kur): 0.5; MIC combine ([19]; ECG with Kur): 4 µg/mL
